The source of these data is patent publication US11446287B2, “Compounds and methods for EP300 or CBP modulation and indications therefor” (Opna Immuno-Oncology SA, priority 2019, dated 2022).

A word on the IC50: it is the point on the concentration scale where inhibition reaches its midpoint.

This assay concerns the target T1, Recombinant human EP300 containing the bromodomain (EP300-BD (1040-1161)) (Homo sapiens, UniProt Q09472).
T1 construct: Recombinant human EP300 bromodomain (EP300-BD (1040-1161)); made in house; host or cells: E. coli BL21-CodonPlus (DE3), modified pET vector
T1 sequence (Q09472 1040-1161): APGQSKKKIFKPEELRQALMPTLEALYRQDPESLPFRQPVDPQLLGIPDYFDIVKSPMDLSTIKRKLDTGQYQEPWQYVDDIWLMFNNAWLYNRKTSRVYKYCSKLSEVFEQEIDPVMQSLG
The assay is described as follows: EP300 Alphascreen binding assay. A digest of the protocol: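 Displacement of a biotinylated acetyl-K56 histone H3 peptide from the N-His bromodomain construct (1040-1161) measured by AlphaScreen proximity, beads at 7.5 μg/ml final, read 60 min after addition. Protein, peptide and compound first incubated 1 h at room temperature, pH 7.5 HEPES buffer; IC50 by four-parameter logistic fit.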
(In general: Alpha assays give light when donor and acceptor beads are brought close together.)
As to `Cc1noc(C)c1-c1cnc2c(-c3cc(C(=O)O)ccc3Cl)c(C(F)(F)F)n([C@@H](C)c3ccccn3)c2c1` [P-0257, (S)-4-chloro-3-(6-(3,5-dimethylisoxazol-4-yl)-1-(1-(pyridin-2-yl)ethyl)-2-(trifluoromethyl)-1H-pyrrolo[3,2-b]pyridin-3-yl)benzoic acid], the half-inhibitory concentration (IC50) lay in the range of 0.1 to 1000 nM.

For the molecule `CCOc1cc(C(=O)O)cc(OCC)c1-n1cc(-c2cnn(CS(C)(=O)=O)c2)c2ncc(-c3c(C)noc3C)cc21` [P-0258, 4-(6-(3,5-dimethylisoxazol-4-yl)-3-(1-((methylsulfonyl)methyl)-1H-pyrazol-4-yl)-1H-pyrrolo[3,2-b]pyridin-1-yl)-3,5-diethoxybenzoic acid], the concentration for half-maximal inhibition (IC50) is 0.1 to 1000 nM.

For `CCOc1cc(C(=O)O)cc(OCC)c1-n1cc(-c2cn(C(C)C)nc2C)c2ncc(-c3c(C)noc3C)cc21` [P-0259, 4-(6-(3,5-dimethylisoxazol-4-yl)-3-(1-isopropyl-3-methyl-1H-pyrazol-4-yl)-1H-pyrrolo[3,2-b]pyridin-1-yl)-3,5-diethoxybenzoic acid], the IC50 was 0.1 to 1000 nM.

With `CCOc1cc(C(=O)O)cc(OCC)c1-n1cc(-c2cnn(CC(C)(C)O)c2)c2ncc(-c3c(C)noc3C)cc21` [P-0260, 4-(6-(3,5-dimethylisoxazol-4-yl)-3-(1-(2-hydroxy-2-methylpropyl)-1H-pyrazol-4-yl)-1H-pyrrolo[3,2-b]pyridin-1-yl)-3,5-diethoxybenzoic acid], the IC50 is 0.1 to 1000 nM.

With `CCOc1cc(C(=O)O)cc(OCC)c1-n1cc(-c2cnn(C(F)F)c2)c2ncc(-c3c(C)noc3C)cc21` [P-0261, 4-(3-(1-(difluoromethyl)-1H-pyrazol-4-yl)-6-(3,5-dimethylisoxazol-4-yl)-1H-pyrrolo[3,2-b]pyridin-1-yl)-3,5-diethoxybenzoic acid], the IC50 was in the range of 0.1 to 1000 nM.

As for `CCOc1cc(C(=O)O)cc(OCC)c1-n1cc(-c2cnn(CCN(C)C)c2)c2ncc(-c3c(C)noc3C)cc21` [P-0262, 4-(3-(1-(2-(dimethylamino)ethyl)-1H-pyrazol-4-yl)-6-(3,5-dimethylisoxazol-4-yl)-1H-pyrrolo[3,2-b]pyridin-1-yl)-3,5-diethoxybenzoic acid], the IC50 was in the range of 0.1 to 1000 nM.

For `CCOc1cc(C(=O)O)cc(OCC)c1-n1cc(-c2cn(C)nc2C)c2ncc(-c3c(C)noc3C)cc21` [P-0263, 4-(3-(1,3-dimethyl-1H-pyrazol-4-yl)-6-(3,5-dimethylisoxazol-4-yl)-1H-pyrrolo[3,2-b]pyridin-1-yl)-3,5-diethoxybenzoic acid], the IC50 is 0.1 to 1000 nM.

On to `CCOc1cc(C(=O)O)cc(OCC)c1-n1cc(-c2cnn(CC3CC3)c2)c2ncc(-c3c(C)noc3C)cc21` [P-0264, 4-(3-(1-(cyclopropylmethyl)-1H-pyrazol-4-yl)-6-(3,5-dimethylisoxazol-4-yl)-1H-pyrrolo[3,2-b]pyridin-1-yl)-3,5-diethoxybenzoic acid], for which the half-inhibitory concentration (IC50) is 0.1 to 1000 nM.

For `CCOc1cc(C(=O)O)cc(OCC)c1-n1cc(-c2cnn(C3CC3)c2)c2ncc(-c3c(C)noc3C)cc21` [P-0265, 4-(3-(1-cyclopropyl-1H-pyrazol-4-yl)-6-(3,5-dimethylisoxazol-4-yl)-1H-pyrrolo[3,2-b]pyridin-1-yl)-3,5-diethoxybenzoic acid], the IC50 was 0.1 to 1000 nM.

Take `CCOc1cc(C(=O)O)cc(OCC)c1-n1cc(-c2cnn(CCC#N)c2)c2ncc(-c3c(C)noc3C)cc21` [P-0266, 4-(3-(1-(2-cyanoethyl)-1H-pyrazol-4-yl)-6-(3,5-dimethylisoxazol-4-yl)-1H-pyrrolo[3,2-b]pyridin-1-yl)-3,5-diethoxybenzoic acid]: the half-inhibitory concentration (IC50) was 0.1 to 1000 nM.

`CCOc1cc(C(=O)O)cc(OCC)c1-n1cc(-c2cnn(CC(=O)N(C)C)c2)c2ncc(-c3c(C)noc3C)cc21` [P-0267, 4-(3-(1-(2-(dimethylamino)-2-oxoethyl)-1H-pyrazol-4-yl)-6-(3,5-dimethylisoxazol-4-yl)-1H-pyrrolo[3,2-b]pyridin-1-yl)-3,5-diethoxybenzoic acid]: the concentration for half-maximal inhibition (IC50) is 0.1 to 1000 nM.

As for `Cc1noc(C)c1-c1cnc2c(c1)c(-c1cc(C(=O)O)ccc1OC(F)(F)F)cn2-c1ccc(F)cc1F` [P-0268, 3-(1-(2,4-difluorophenyl)-5-(3,5-dimethylisoxazol-4-yl)-1H-pyrrolo[2,3-b]pyridin-3-yl)-4-(trifluoromethoxy)benzoic acid], the half-maximal inhibitory concentration (IC50) is 0.1 to 1000 nM.

Turning to `Cc1noc(C)c1-c1cnc2c(-c3ccc(F)cc3F)cn(-c3c(OC(C)C)cc(C(=O)O)cc3OC(C)C)c2c1` [P-0269, 4-(3-(2,4-difluorophenyl)-6-(3,5-dimethylisoxazol-4-yl)-1H-pyrrolo[3,2-b]pyridin-1-yl)-3,5-diisopropoxybenzoic acid], the IC50 is 0.1 to 1000 nM.

Consider `CCOc1cc(C(=O)O)cc(OCC)c1-n1cc(CC2CCC2)c2ncc(-n3c(C)nnc3C)cc21` [P-0270, 4-(3-(cyclobutylmethyl)-6-(3,5-dimethyl-4H-1,2,4-triazol-4-yl)-1H-pyrrolo[3,2-b]pyridin-1-yl)-3,5-diethoxybenzoic acid], for which the IC50 was 1000 to 8000 nM.

Regarding `CCOc1cc(C(=O)O)cc(OCC)c1-n1cc(C2CCC(F)(F)CC2)c2ncc(-c3c(C)noc3C)cc21` [P-0271, 4-(3-(4,4-difluorocyclohexyl)-6-(3,5-dimethylisoxazol-4-yl)-1H-pyrrolo[3,2-b]pyridin-1-yl)-3,5-diethoxybenzoic acid], the 50% inhibitory concentration (IC50) was 0.1 to 1000 nM.

For the molecule `Cc1noc(C)c1-c1cnc2c(c1)c(-c1cnn(CC(=O)O)c1)cn2-c1ncccc1C#CC1CC1` [P-0272, 2-(4-(1-(3-(cyclopropylethynyl)pyridin-2-yl)-5-(3,5-dimethylisoxazol-4-yl)-1H-pyrrolo[2,3-b]pyridin-3-yl)-1H-pyrazol-1-yl)acetic acid], the IC50 was in the range of 0.1 to 1000 nM.

Consider `Cc1noc(C)c1-c1cnc2c(c1)c(-c1ccc(C(=O)O)cc1OC(F)F)cn2-c1ccccc1` [P-0273, 3-(difluoromethoxy)-4-(5-(3,5-dimethylisoxazol-4-yl)-1-phenyl-1H-pyrrolo[2,3-b]pyridin-3-yl)benzoic acid], for which the IC50 was 0.1 to 1000 nM.

Turning to `Cc1noc(C)c1-c1cnc2c(-c3ccccc3)cn(-c3cc(C(=O)O)ccc3OC(F)(F)F)c2c1` [P-0274, 3-(6-(3,5-dimethylisoxazol-4-yl)-3-phenyl-1H-pyrrolo[3,2-b]pyridin-1-yl)-4-(trifluoromethoxy)benzoic acid], the concentration for half-maximal inhibition (IC50) is 0.1 to 1000 nM.

With `Cc1noc(C)c1-c1cnc2c(c1)c(-c1ccc(C(=O)O)cc1OC(C)C)cn2-c1ccccc1` [P-0275, 4-(5-(3,5-dimethylisoxazol-4-yl)-1-phenyl-1H-pyrrolo[2,3-b]pyridin-3-yl)-3-isopropoxybenzoic acid], the IC50 fell in the range of 0.1 to 1000 nM.

Consider `Cc1noc(C)c1-c1cnc2c(c1)c(-c1ccc(C(=O)O)cc1OC1CCC1)cn2-c1ccccc1` [P-0276, 3-cyclobutoxy-4-(5-(3,5-dimethylisoxazol-4-yl)-1-phenyl-1H-pyrrolo[2,3-b]pyridin-3-yl)benzoic acid], for which the IC50 lay within 0.1 to 1000 nM.

Take `Cc1noc(C)c1-c1cnc2c(c1)c(-c1ccc(C(=O)O)cc1OCC(F)F)cn2-c1ccccc1` [P-0277, 3-(2,2-difluoroethoxy)-4-(5-(3,5-dimethylisoxazol-4-yl)-1-phenyl-1H-pyrrolo[2,3-b]pyridin-3-yl)benzoic acid]: the half-inhibitory concentration (IC50) was 0.1 to 1000 nM.

On to `Cc1noc(C)c1-c1cnc2c(c1)c(-c1ccc(C(=O)O)cc1OCC(F)(F)F)cn2-c1ccccc1` [P-0278, 4-(5-(3,5-dimethylisoxazol-4-yl)-1-phenyl-1H-pyrrolo[2,3-b]pyridin-3-yl)-3-(2,2,2-trifluoroethoxy)benzoic acid], for which the half-inhibitory concentration (IC50) lay in the range of 0.1 to 1000 nM.

Take `Cc1noc(C)c1-c1cnc2c(c1)c(-c1ccc(C(=O)O)cc1OC(F)(F)F)cn2-c1ccc(F)cc1` [P-0279, 4-(5-(3,5-dimethylisoxazol-4-yl)-1-(4-fluorophenyl)-1H-pyrrolo[2,3-b]pyridin-3-yl)-3-(trifluoromethoxy)benzoic acid]: the IC50 was 0.1 to 1000 nM.

With `Cc1noc(C)c1-c1cnc2c(c1)c(-c1cnn(CC(=O)O)c1)cn2C(C1CC1)C1CC1` [P-0280, 2-(4-(1-(dicyclopropylmethyl)-5-(3,5-dimethylisoxazol-4-yl)-1H-pyrrolo[2,3-b]pyridin-3-yl)-1H-pyrazol-1-yl)acetic acid], the IC50 fell in the range of 0.1 to 1000 nM.

Turning to `Cc1noc(C)c1-c1cnc2c(c1)c(-c1ccc(C(=O)O)cc1OC(F)(F)F)cn2-c1cnc(N2CCC2)nc1` [P-0281, 4-(1-(2-(azetidin-1-yl)pyrimidin-5-yl)-5-(3,5-dimethylisoxazol-4-yl)-1H-pyrrolo[2,3-b]pyridin-3-yl)-3-(trifluoromethoxy)benzoic acid], the IC50 was in the range of 0.1 to 1000 nM.

On to `Cc1noc(C)c1-c1cnc2c(c1)c(-c1ccc(C(=O)O)cc1OC(F)(F)F)cn2-c1ccc(S(C)(=O)=O)cc1` [P-0282, 4-(5-(3,5-dimethylisoxazol-4-yl)-1-(4-(methylsulfonyl)phenyl)-1H-pyrrolo[2,3-b]pyridin-3-yl)-3-(trifluoromethoxy)benzoic acid], for which the IC50 was 0.1 to 1000 nM.

Take `Cc1noc(C)c1-c1cnc2c(c1)c(-c1c(Cl)cc(C(=O)O)cc1OC(C)C)cn2C(C1CC1)C1CC1` [P-0283, 3-chloro-4-(1-(dicyclopropylmethyl)-5-(3,5-dimethylisoxazol-4-yl)-1H-pyrrolo[2,3-b]pyridin-3-yl)-5-isopropoxybenzoic acid]: the IC50 lay in the range of 0.1 to 1000 nM.

Take `Cc1noc(C)c1-c1cnc2c(c1)c(-c1cc(C(=O)O)ccc1OC(F)(F)F)cn2C(C1CC1)C1CC1` [P-0284, 3-(1-(dicyclopropylmethyl)-5-(3,5-dimethylisoxazol-4-yl)-1H-pyrrolo[2,3-b]pyridin-3-yl)-4-(trifluoromethoxy)benzoic acid]: the IC50 fell in the range of 0.1 to 1000 nM.
